# Results as given in patent US20210230170A1, “KRAS G12C INHIBITORS” (Mirati Therapeutics, Inc., priority 2018, published 2021).
# Molecular target: T1, KRas G12C (Homo sapiens, UniProt P01116, G12C)
# T1 construct: NCI-H358 cells (ATCC CRL-5807) express KRas G12C; host or cells: NCI-H358
# Experiment: Inhibition of KRas G12C in NCI-H358 cells measured by phosphorylated ERK (Phospho-ERK)
# Format: cell-based
# Details: pERK(Thr202/Tyr204) signal normalized with GAPDH, percent of DMSO control, 3 hours compound treatment
# Description: The cellular inhibition of KRAs G12C by exemplary compounds of the present invention was determined by measuring the amount of a downstream marker of KRas activity, phosphorylated ERK (“Phospho-ERK”).
# NCI-H358 cells (ATCC CRL-5807) express KRas G12C and were grown in RPMI medium supplemented with 10% fetal bovine serum, penicillin/streptomycin and 10 mM HEPES. Cells were plated in poly-D-Lysine coated 96-well plates at a concentration of 50,000 cells/well and allowed to attach for 8-12 hours. Diluted compounds were then added at a final concentration of 0.5% DMSO. After 3 hours, the medium was removed, 150 μL of 4% formaldehyde was added and the plates were incubated for 20 minutes. The plates were washed with PBS, and permeabilized using 150 μL of ice cold 100% methanol for 10 minutes. Non-specific antibody binding to the plates was blocked using 100 μL Licor Blocking Buffer (Li-Cor Biotechnology, Lincoln Nebr.) for 1 hour at room temperature. Positive control samples and samples lacking cells were parallel processed with test samples as standards.
# The amount Phospho-ERK was determined using an antibody specific for the phosphorylated form of ERK and compared to the amount of GAPDH. Primary antibodies used for detection were added as follows: Phospho-ERK (Cell Signaling cs9101) diluted 1:500 and GAPDH (Millipore MAB374) diluted 1:5000 in Licor block+0.05% Tween 20. The plates were incubated for 2 hours at room temperature. The plates were washed with PBS+0.05% Tween 20.
# Secondary antibodies used to visualize primary antibodies were added as follows: Anti-rabbit-680 diluted 1:1000 and Anti-mouse-800 diluted 1:1000 in Licor Block+0.05% Tween 20 and incubated for 1 hour at room temperature. The plates were washed with PBS+0.05% Tween 20. A 100 μL aliquot of PBS was added to each well and the plates were read on a LICOR AERIUS plate reader.
# The pERK(Thr202/Tyr204) signal was normalized with the GAPDH signal and percent of DMSO control values were calculated. IC50 values were generated using a 4 parameter fit of the dose response curve. Key: “A”≤500 nM; “B”>500 nM and ND=not determined.
# T1 sequence (P01116 1-188 isoform P01116-2 G12C): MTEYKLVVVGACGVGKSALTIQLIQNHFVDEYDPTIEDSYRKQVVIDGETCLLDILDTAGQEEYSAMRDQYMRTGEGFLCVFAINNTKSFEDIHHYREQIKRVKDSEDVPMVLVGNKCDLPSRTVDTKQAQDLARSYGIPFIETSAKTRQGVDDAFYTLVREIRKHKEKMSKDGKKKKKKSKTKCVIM
row,IC50,Structure (SMILES)
1,> 500 nM,"C=CC(=O)N1CCN(c2nc(OC[C@@H]3CCCN3C)nc3c2CCCN(c2ccccc2CO)C3)C[C@@H]1CC#N [Example 16, 2-[(2S)-4-[8-[2-(hydroxymethyl)phenyl]-2-[[(2S)-1-methylpyrrolidin-2-yl]methoxy]-5,6,7,9-tetrahydropyrimido[4,5-c]azepin-4-yl]-1-prop-2-enoyl-piperazin-2-yl]acetonitrile]"
2,> 500 nM,"C=CC(=O)N1CCN(c2nc(OC[C@@H]3CCCN3C)nc3c2CCCN(c2ccccc2C)C3)C[C@@H]1CC#N [Example 4, 2-[(2S)-4-[2-[[(2S)-1-methylpyrrolidin-2-yl]methoxy]-8-(o-tolyl)-5,6,7,9-tetrahydropyrimido[4,5-c]azepin-4-yl]-1-prop-2-enoyl-piperazin-2-yl]acetonitrile]"
3,> 500 nM,"C=C(F)C(=O)N1CCN(c2nc(OC[C@@H]3CCCN3C)nc3c2CCCN(c2cccc4[nH]ncc24)C3)C[C@@H]1CC#N [Example 26, 2-((S)-4-(8-(1H-indazol-4-yl)-2-(((S)-1-methylpyrrolidin-2-yl)methoxy)-6,7,8,9-tetrahydro-5H-pyrimido[4,5-c]azepin-4-yl)-1-(2-fluoroacryloyl)piperazin-2-yl)acetonitrile]"
4,> 500 nM,"C=CC(=O)N1CCN(c2nc(OC[C@@H]3CCCN3C)nc3c2CCCN(c2ccccc2)C3)C[C@@H]1CC#N [Example 5, 2-[(2S)-4[2-[[(2S)-1-methylpyrrolidin-2-yl]methoxy]-8-phenyl-5,6,7,9-tetrahydropyrimido[4,5-c]azepin-4-yl]-1-prop-2-enoyl-piperazin-2-yl]acetonitrile]"
5,> 500 nM,"C=CC(=O)N1CCN(c2nc(OC[C@@H]3CCCN3C)nc3c2CCCN(c2cccc4c(C)cccc24)C3)C[C@@H]1CC#N [Example 11, 2-((S)-1-acryloyl-4-(8-(5-methylnaphthalen-1-yl)-2-(((S)-1-methylpyrrolidin-2-yl)methoxy)-6,7,8,9-tetrahydro-5H-pyrimido[4,5-c]azepin-4-yl)piperazin-2-yl)acetonitrile]"
6,> 500 nM,"C=C(F)C(=O)N1CCN(c2nc(OC[C@@H]3CCCN3C)nc3c2CCCN(c2cccc4cccc(C)c24)C3)C[C@@H]1CC#N [Example 2, 2-[(2S)-1-(2-fluoroprop-2-enoyl)-4-[8-(8-methyl-1-naphthyl)-2-[[(2S)-1-methylpyrrolidin-2-yl]methoxy]-5,6,7,9-tetrahydropyrimido[4,5-c]azepin-4-yl]piperazin-2-yl]acetonitrile]"
